The values that follow come from patent US9790215B2 (FLATLEY DISCOVERY LAB, LLC, priority 2013, dated 2017).

pEC50: −log10 of the molar value.

This test has as its target T1, human ΔF508-CFTR (Homo sapiens, UniProt P13569, DEL508-508).
T1 construct: expressed in transfected cells
Description: CFTR-YFP High Throughput Assay (YFP halide flux in FRT cells). Format: cell-based. As to conditions: FRT cells expressing human ΔF508-CFTR and YFP; forskolin stimulated. The protocol:
Assays for Detecting and Measuring the Effect of Compounds on dF508-CFTR Channels CFRT-YFP High Throughput Assay:
The following protocol is designed to selectively screen small molecule compounds for F508del CFTR corrector activities in the HTS YFP flux assay. In this protocol, the cells are incubated with testing compounds for 24 hours, washed with PBS, stimulated with forskolin and a standard potentiator, and read on a 384-well HTS plate reader, such as the Hamamatsu FDDD-6000.
YFP fluorescence intensity is acquired at high speed before and after iodide buffer is injected to the assay cells. Iodide enters the cells via active CFTR channels in the plasma membrane, and quenches the YFP fluorescence. The rate of fluorescence quenching is proportionally related to the total CFTR activities in the cell membrane. dF508-CFTR corrector accelerates YFP quenching by increasing the number of CFTR molecules in the testing cell plasma membrane.
This method was initially developed for bench top plate readers (Galietta et al., 2001), and was adapted to the HTS format (Sui et al. Assay Drug Dev. Technol. 2010).
Fisher Rat Thyroid (FRT) cells stably expressing both human AF508-CFTR and a halide-sensitive yellow fluorescent protein (YFP—H148Q/1152L 25, 22) (Galietta et al., Am. J. Physiol Cell Physiol 281(5), C1734, 2001) were cultured on plastic surface in Coon's modified Ham's F12 medium supplemented with FBS 10%, L-glutamine 2 mM, penicillin 100 U/mL, and streptomycin 100 μg/mL. G418 (0.75-1.0 mg/mL) and zeocin (3.2 ug/mL) were used for selection of FRT cells expressing ΔF508-CFTR and YFP. For primary screening, FRT cells were plated into 384-well black wall, transparent bottom microtiter plates (Costar; Corning Inc.) at a cell density of 20,000-40,000 per well. Test compound was applied to the cells at varying concentrations ranging from […] in either a 2-fold or 3-fold dilution series. Cells were incubated in a cell culture incubator at 37° C. with 5% CO2 for 24-26 h. Assay plates were washed with DPBS media (Thermo, cat# SH30028.02) to remove unbound cells and compound. Stimulation media (25 μL) containing 20 μM Forskolin & 30 μM P3 [6-(Ethyl-phenyl-sulfonyl)-4-oxo-1,4-dihydro-quinoline-3-carboxylic acid 2-methoxy-benzylamide] in Hams F-12 coon's modified media was added to the plate wells and incubated at room temperature for 60-120 min. 25 μL of HEPES-PBS-I buffer (10 mM HEPES, 1 mM MgCl2, 3 mM KCl, 1 mM CaCl2, 150 mM NaI) was then added and fluorescence quench curves (Excitation 500 nm/Emission 540 nm; exposure 136 ms) were immediately recorded on an FDSS-6000 plate reader (Hamamatsu). Quench rates were derived from least squares fitting of the data as described by Sui et al., (2010).
The following protocol is designed to selectively screen small molecule compounds for F508del CFTR potentiator activities in the HTS YFP flux assay. In this protocol, the cells are incubated at 27 C for 24 hours with homogeneously boosted dF508-CFTR expression in the cell membrane by the low temperature, washed with PBS, stimulated with forskolin, and read on a 384-well HTS plate reader, such as the Hamamatsu FDDD-6000.
YFP fluorescence intensity is acquired at high speed before and after iodide buffer is injected to the assay cells. Iodide enters the cells via active CFTR channels in the plasma membrane, and quenches the YFP fluorescence. The rate of fluorescence quenching is proportionally related to the total CFTR activities in the cell membrane. dF508del-CFTR potentiators accelerate YFP quenching by increasing CFTR activities in the testing cell plasma membrane.
Fisher Rat Thyroid (FRT) cells stably expressing both human ΔF508-CFTR and a halide-sensitive yellow fluorescent protein (YFP-H148Q/I152L 25, 22) (Galietta et al., Am. J. Physiol Cell Physiol 281(5), C1734, 2001) were cultured on plastic surface in Coon's modified Ham's F12 medium supplemented with FBS 10%, L-glutamine 2 mM, penicillin 100 U/mL, and streptomycin 100 μg/mL. […]

T1 sequence (P13569 with tags, fused parts or gaps DEL508-508): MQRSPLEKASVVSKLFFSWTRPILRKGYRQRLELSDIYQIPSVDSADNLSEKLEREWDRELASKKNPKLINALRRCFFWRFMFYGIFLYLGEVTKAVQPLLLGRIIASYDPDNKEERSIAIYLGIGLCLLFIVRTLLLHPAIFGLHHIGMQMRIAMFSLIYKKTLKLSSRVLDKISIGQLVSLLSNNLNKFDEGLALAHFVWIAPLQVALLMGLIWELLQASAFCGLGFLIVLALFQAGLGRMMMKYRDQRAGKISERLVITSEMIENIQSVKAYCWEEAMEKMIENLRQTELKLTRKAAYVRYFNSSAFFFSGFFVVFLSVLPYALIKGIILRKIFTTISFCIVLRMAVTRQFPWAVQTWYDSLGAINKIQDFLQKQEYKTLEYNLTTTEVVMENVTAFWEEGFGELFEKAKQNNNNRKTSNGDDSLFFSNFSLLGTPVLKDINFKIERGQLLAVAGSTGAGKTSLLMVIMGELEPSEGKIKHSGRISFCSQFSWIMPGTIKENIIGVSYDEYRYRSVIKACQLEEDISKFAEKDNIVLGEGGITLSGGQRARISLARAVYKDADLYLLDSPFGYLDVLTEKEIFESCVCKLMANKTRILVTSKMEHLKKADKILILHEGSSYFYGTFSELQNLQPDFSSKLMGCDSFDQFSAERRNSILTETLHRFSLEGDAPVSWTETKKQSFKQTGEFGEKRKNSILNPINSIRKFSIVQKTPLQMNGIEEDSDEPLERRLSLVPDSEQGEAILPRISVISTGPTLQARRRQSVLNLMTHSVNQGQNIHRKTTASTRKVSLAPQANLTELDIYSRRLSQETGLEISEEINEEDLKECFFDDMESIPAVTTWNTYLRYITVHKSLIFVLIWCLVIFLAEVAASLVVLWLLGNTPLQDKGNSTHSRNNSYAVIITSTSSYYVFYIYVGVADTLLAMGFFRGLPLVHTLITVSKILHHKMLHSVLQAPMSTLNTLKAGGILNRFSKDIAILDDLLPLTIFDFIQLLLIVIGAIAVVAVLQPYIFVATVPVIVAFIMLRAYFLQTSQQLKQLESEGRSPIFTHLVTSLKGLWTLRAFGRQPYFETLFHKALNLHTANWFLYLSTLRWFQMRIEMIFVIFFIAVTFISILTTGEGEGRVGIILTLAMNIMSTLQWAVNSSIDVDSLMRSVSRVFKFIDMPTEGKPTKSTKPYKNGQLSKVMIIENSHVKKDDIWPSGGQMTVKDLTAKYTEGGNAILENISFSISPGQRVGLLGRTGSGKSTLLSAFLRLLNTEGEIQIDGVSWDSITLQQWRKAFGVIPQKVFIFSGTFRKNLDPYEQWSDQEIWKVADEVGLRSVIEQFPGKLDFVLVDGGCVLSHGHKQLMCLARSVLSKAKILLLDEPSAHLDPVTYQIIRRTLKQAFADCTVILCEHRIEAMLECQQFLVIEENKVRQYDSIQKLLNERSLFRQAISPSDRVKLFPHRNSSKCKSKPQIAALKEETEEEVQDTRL

Consider `CCN(C(=O)Cn1nc(Cc2cccnc2)c2cccc(OC3CCCCC3)c2c1=O)c1ccc2c(c1)OC(F)(F)O2` [Example 59, 2-(8-(cyclohexyloxy)-1-oxo-4-(pyridin-3-ylmethyl)phthalazin-2(1H)-yl)-N-(2,2-difluorobenzo[d][1,3]dioxol-5-yl)-N-ethylacetamide], for which the negative-log EC50 (pEC50) (commonly the EC50 on a negative log10 scale, so that one unit is a factor of ten) is over 5.00.
As for `CCN(C(=O)Cn1nc(Cc2cccnc2)c2c(OC3CCCCC3)cccc2c1=O)c1ccc2c(c1)OC(F)(F)O2` [Example 60, 2-(5-(cyclohexyloxy)-1-oxo-4-(pyridin-3-ylmethyl)phthalazin-2(1H)-yl)-N-(2,2-difluorobenzo[d][1,3]dioxol-5-yl)-N-ethylacetamide], the figure is over 5.00.
Consider `CCN(C(=O)Cn1nc(Cc2cccnc2)c2cccc(OCCOC)c2c1=O)c1ccc2c(c1)OC(F)(F)O2` [Example 61, N-(2,2-difluorobenzo[d][1,3]dioxol-5-yl)-N-ethyl-2-(8-(2-methoxyethoxy)-1-oxo-4-(pyridin-3-ylmethyl)phthalazin-2(1H)-yl)acetamide], for which the pEC50 is over 5.00.
As for `CCN(C(=O)Cn1nc(Cc2cccnc2)c2c(OCCOC)cccc2c1=O)c1ccc2c(c1)OC(F)(F)O2` [Example 62, N-(2,2-difluorobenzo[d][1,3]dioxol-5-yl)-N-ethyl-2-(5-(2-methoxyethoxy)-1-oxo-4-(pyridin-3-ylmethyl)phthalazin-2(1H)-yl)acetamide], the pEC50 was over 5.00.
Next, `COc1ccc2c(-c3cccc(C#N)c3)nn(CC(=O)N(C)c3ccc4c(c3)OC(F)(F)O4)c(=O)c2c1` [Example 63, 2-(4-(3-cyanophenyl)-7-methoxy-1-oxophthalazin-2(1H)-yl)-N-(2,2-difluorobenzo[d][1,3]dioxol-5-yl)-N-methylacetamide]: over 5.00.
On to `COc1ccc2c(-c3ccc(S(N)(=O)=O)cc3)nn(CC(=O)N(C)c3ccc4c(c3)OC(F)(F)O4)c(=O)c2c1` [Example 64, N-(2,2-difluorobenzo[d][1,3]dioxol-5-yl)-2-(7-methoxy-1-oxo-4-(4-sulfamoylphenyl)phthalazin-2(1H)-yl)-N-methylacetamide], for which the pEC50 was over 5.00.
With `CCN(C(=O)Cn1nc(-c2ccc(S(N)(=O)=O)cc2)c2ccc(OC)cc2c1=O)c1ccc2c(c1)OC(F)(F)O2` [Example 65, N-(2,2-difluorobenzo[d][1,3]dioxol-5-yl)-N-ethyl-2-(7-methoxy-1-oxo-4-(4-sulfamoylphenyl)phthalazin-2(1H)-yl)acetamide], the pEC50 is over 5.00.
For the compound `CCN(C(=O)Cn1nc(-c2ccc(S(N)(=O)=O)cc2)c2ccc(OC)cc2c1=O)c1ccc(OC(F)F)cc1` [Example 66, N-(4-(difluoromethoxy)phenyl)-N-ethyl-2-(7-methoxy-1-oxo-4-(4-sulfamoylphenyl)phthalazin-2(1H)-yl)acetamide], the pEC50 was under 4.70.
Next, `CCN(C(=O)Cn1nc(-c2cccc(C#N)c2)c2ccc(OC)cc2c1=O)c1ccc(OC(F)F)cc1` [Example 67, 2-(4-(3-cyanophenyl)-7-methoxy-1-oxophthalazin-2(1H)-yl)-N-(4-(difluoromethoxy)phenyl)-N-ethylacetamide]: over 5.00; `COc1ccc2c(-c3ccc(S(N)(=O)=O)cc3)nn(CC(=O)N(c3ccc4c(c3)OC(F)(F)O4)C(C)C)c(=O)c2c1` [Example 69, N-(2,2-difluorobenzo[d][1,3]dioxol-5-yl)-N-isopropyl-2-(7-methoxy-1-oxo-4-(4-sulfamoyl-phenyl)phthalazin-2(1H)-yl)acetamide]: over 5.00; `COc1ccc2c(-c3cccc(C#N)c3)nn(CC(=O)N(c3ccc4c(c3)OC(F)(F)O4)C(C)C)c(=O)c2c1` [Example 70, 2-(4-(3-cyanophenyl)-7-methoxy-1-oxophthalazin-2(1H)-yl)-N-(2,2-difluorobenzo[d][1,3]dioxol-5-yl)-N-isopropylacetamide]: over 5.00.
With `COc1ccc2c(-c3ccc(S(N)(=O)=O)cc3)nn(CC(=O)N(c3ccc4c(c3)OC(F)(F)O4)C3CC3)c(=O)c2c1` [Example 71, N-cyclopropyl-N-(2,2-difluorobenzo[d][1,3]dioxol-5-yl)-2-(7-methoxy-1-oxo-4-(4-sulfamoylphenyl)phthalazin-2(1H)-yl)acetamide], the pEC50 is over 5.00.
As for `COc1ccc2c(-c3cccc(C#N)c3)nn(CC(=O)N(c3ccc4c(c3)OC(F)(F)O4)C3CC3)c(=O)c2c1` [Example 72, 2-(4-(3-cyanophenyl)-7-methoxy-1-oxophthalazin-2(1H)-yl)-N-cyclopropyl-N-(2,2-difluorobenzo[d][1,3]dioxol-5-yl)acetamide], the pEC50 was over 5.00.
As for `CCN(C(=O)Cn1nc(-c2ccc(C(N)=O)cc2)c2ccc(OC)cc2c1=O)c1ccc2c(c1)OC(F)(F)O2` [Example 75, 4-(3-(2-((2,2-difluorobenzo[d][1,3]dioxol-5-yl)(ethyl)amino)-2-oxoethyl)-6-methoxy-4-oxo-3,4-dihydrophthalazin-1-yl)benzamide], the pEC50 was over 5.00.
Turning to `COc1ccc2c(-c3ccc(C(N)=O)cc3)nn(CC(=O)N(C)c3ccc4c(c3)OC(F)(F)O4)c(=O)c2c1` [Example 76, 4-(3-(2-((2,2-difluorobenzo[d][1,3]dioxol-5-yl)(methyl)amino)-2-oxoethyl)-6-methoxy-4-oxo-3,4-dihydrophthalazin-1-yl)benzamide], the pEC50 was over 5.00.
`CCN(C(=O)Cn1nc(-c2ccc(C(N)=O)cc2)c2ccc(OC)cc2c1=O)c1ccc2nc(C)oc2c1` [Example 77, 4-(3-(2-(ethyl(2-methylbenzo[d]oxazol-6-yl)amino)-2-oxoethyl)-6-methoxy-4-oxo-3,4-dihydrophthalazin-1-yl)benzamide]: the pEC50 is over 5.00.
Next, `CCN(C(=O)Cn1nc(C(=O)Nc2ccccc2C#N)c2ccccc2c1=O)c1ccc2c(c1)OC(F)(F)O2` [Example 78, N-(2-cyanophenyl)-3-(2-((2,2-difluorobenzo[d][1,3]dioxol-5-yl)(ethyl)amino)-2-oxoethyl)-4-oxo-3,4-dihydrophthalazine-1-carboxamide]: 4.70 to 5.00; `CCN(C(=O)Cn1nc(C(=O)Nc2cc(Cl)ccc2C(=O)O)c2ccccc2c1=O)c1ccc2c(c1)OC(F)(F)O2` [Example 79, 4-chloro-2-(3-(2-((2,2-difluorobenzo[d][1,3]dioxol-5-yl)(ethyl)amino)-2-oxoethyl)-4-oxo-3,4-dihydrophthalazine-1-carboxamido)benzoic acid]: over 5.00; `CCN(C(=O)Cn1nc(C(=O)Nc2ccccn2)c2ccccc2c1=O)c1ccc2c(c1)OC(F)(F)O2` [Example 80, 3-(2-((2,2-difluorobenzo[d][1,3]dioxol-5-yl)(ethyl)amino)-2-oxoethyl)-4-oxo-N-(pyridin-2-yl)-3,4-dihydrophthalazine-1-carboxamide]: under 4.70.
Consider `CCN(C(=O)Cn1nc(C(=O)N(C)c2ccccn2)c2ccccc2c1=O)c1ccc2c(c1)OC(F)(F)O2` [Example 81, 3-(2-((2,2-difluorobenzo[d][1,3]dioxol-5-yl)(ethyl)amino)-2-oxoethyl)-N-methyl-4-oxo-N-(pyridin-2-yl)-3,4-dihydrophthalazine-1-carboxamide], for which the pEC50 is 4.70 to 5.00.
Turning to `CCc1ccc(N(CC)C(=O)Cn2nc(C(=O)Nc3cc(Cl)ccc3C#N)c3ccccc3c2=O)cc1` [Example 82, N-(5-chloro-2-cyanophenyl)-3-(2-(ethyl(4-ethylphenyl)amino)-2-oxoethyl)-4-oxo-3,4-dihydrophthalazine-1-carboxamide], the pEC50 is over 5.00.
